Assay results published in patent US10363229B2, “Methods and compositions for the treatment of cancer” (priority 2009, dated 2019).

Assays:
[1] = test system: Mouse breast cancer cells (66Cl-1); test: Effects of methyl sulfone on estrogen receptor-negative breast cancer cells; assay type: cell-based
Experimental: Cloudman S-91 mouse melanoma cells (sub-clone M-3, CCL 53.1; American Type Culture Collection, Rockville, Md.) were grown in RMPI medium supplemented with 10% fetal bovine serum (Invitrogen, Inc) and 5% penicillin-streptomycin (Invitrogen, Inc). Mouse breast cancer cells (66Cl-1; American Type Culture Collection, Rockville, Md.) that are estrogen-receptor negative were grown in DMEM medium supplemented with 10% fetal bovine serum (Invitrogen, Inc) and 5% penicillin/streptomycin (Invitrogen, Inc). Human T-cell leukemic lymphocytes (CEM; American Type Culture Collection, Rockville, Md.) were grown in MEM medium supplemented with 7% fetal calf serum. Cultures were passaged twice a week. […]
Cells were plated onto sterile 12 mm coverslips in 35 mm tissue culture plates and incubated at 37° C., 5% CO2. After 24 hours, 2% methyl sulfone in medium or medium alone was added the plates and incubated at 37° C., 5% CO2 for 48 and 72 hrs. BrdU (Molecular Probes, Eugene, Oreg., USA; diluted ⅓ in RPMI medium) was added to each plate for 60 minutes at 37° C., 5% CO2. Coverslips were transferred to porcelain holders, washed with PBS, fixed in methanol/acetone (1:1), washed with PBS, and incubated in 5% BSA/PBS for 30 minutes at room temperature. To denature DNA, coverslips were placed in 0.1N HCL/1% Triton X-100 for 10 minutes at room temperature. After washing in PBS, cells were incubated with Alexa Fluor 488 anti-BrdU antibody (Molecular Probes, Eugene, Oreg.; diluted 1/20 in 5% BSA/PBS) for 60 minutes at room temperature. Cells were washed in PBS and incubated with Hoechst (diluted 1/1000 in PBS) in the dark at room temperature. After washing in PBS, cells were dipped in dH2O and drained onto Kim Wipes. SlowFade mounting medium (Molecular Probes, Eugene, Oreg.) was added to a glass slide and coverslips were placed face down onto slides and sealed with clear nail polish. Cells were viewed at the Center for Cell Analysis and Modeling, University of Connecticut Health Center, Farmington, Conn., with an Axioplan CCD Microscope equipped with a 40×1.3 NA FL objective lens, equipped with a Photometrics PXL-EEV37 high speed digital cooled CCD camera. Molecular Devices Metamorph was used for image acquisition.
Cells were plated on 8-35 mm plates that contained base agar with and without 2% methyl sulfone. To make base agar, 1% agar (DNA grade; Difco Bacto Agar; Becton Dickenson and Company, Sparks, Md.), was mixed in water at room temperature, melted in a microwave, and cooled to 40° C. before using. For drug plates, 1% agar was combined (1:1) with 4% methyl sulfone in 2×RPMI medium with sodium bicarbonate supplemented with 10% FBS and 5% penicillin/streptomycin. For control plates, 1% agar was combined (1:1) with 2×RMPI medium. Agar +/−2% methyl sulfone was added to appropriate 35 mm tissue culture plates and stored overnight at 4° C. The next day top agar and cells were placed on top of the base agar. Top agar was made with 0.66% agar in water. The agar was melted in a microwave, cooled, and stored at 40° C. 2×RPMI medium and 4% methyl sulfone was also stored at 40° C. Cells were trypsinized and counted for a final concentration of 5×10^3 cells/plate. Cell counts were adjusted to 2×10^5 cells/ml and 0.05 ml of the cell suspension was added to 15 ml centrifuge tubes (2 each). Base agar plates were removed from 4° C. and allowed to warm to room temperature for approximately 30 minutes prior to plating. For plating control cells, 2×RPMI medium and 0.66% agar were added to the tube of cell suspension, gently mixed, and placed on top of control base agar plates. For plating cells in 2% methyl sulfone, 4% methyl sulfone (in 2×RMPI medium) and 0.66% agar was added to the tube of cell suspension, mixed gently, and placed on top of the drug base agar plates. Cells were incubated in the 37° C., 5% CO2 incubator for 10-14 days. Plates were stained with 0.005% crystal violet for 1 hour. Colonies were photographed and counted with a dissecting microscope. […]

[2] = test system: normal lymphocytes (T-cells) from a healthy volunteer; test: Apoptosis of normal T-cell lymphocytes by Flow Cytometry; assay type: cell-based, human
Text: Normal T-cell lymphocytes were obtained from a blood sample of a healthy volunteer. Blood samples were obtained with IRB approval and with the volunteer signing an Informed Consent Form. White blood cells were separated from red blood cells using a Ficoll gradient. Flow cytometry with antibodies against CD3 and CD4 was used to identify T-cell lymphocytes (Flow Cytometry Facility, University of Connecticut Health Center, Farmington, Conn.).
Blood was drawn from healthy volunteers and white blood cells (e.g., lymphocytes, neutrophils) were enriched using Ficoll-Plaque. Cells were incubated in Petri dishes containing MEM with 7% fetal calf serum in a CO2 (5%) incubator at 37° C.; Methyl sulfone was present at concentrations of 0, 3, 6, or 10%. After 20 hours, cells were incubated with antibodies specific to T-lymphocytes (CD3 and CD4 T-cells), B-lymphocytes (B-cells) and neutrophils, and the percent of apoptotic cells was determined by Flow Cytometry. This is a technique that identifies specific cell types (e.g., CD3 T-cells, CD4 T-cells, B-cells, neutrophils) within a mixed population of blood cells, and then determines whether the cells are alive or apoptotic.
After 20 hours, cells were incubated with fluorescent antibodies to identify T-cells, B-cells and neutrophils, and then processed by Flow Cytometry (FIG. 15).

## methyl sulfone
[1]; 2% methyl sulfone
  DNA synthesis: markedly reduced
  cell growth anchorage dependence: anchorage-dependent
  contact inhibition: contact inhibited
  migration of cells through an extracellular matrix: inhibited
  mitochondrial activity: decreased
  senescence: became senescent
  wound healing: proceeded normally
[1]; breast cancer cells
  methyl sulfone concentration inducing apoptosis in breast cancer cells: above 2%
[2]; 10% methyl sulfone, 20 hours
  viability of normal lymphocytes (T-cells): remained viable
[2]; summary in the description, concentration not given
  T-cells from the healthy volunteer induced into apoptosis: less than 10%
